# Measurements reported in the supplement of paper PMC10307832.
# Experiments:
# Test in all cases: relative viability (nuclei count vs DMSO), 5 days (fraction); higher = more cells survive
# Cediranib + Tozasertib = compound: COc1cc2c(Oc3ccc4[nH]c(C)cc4c3F)ncnc2cc1OCCCN1CCCC1 [Cediranib] + Cc1cc(Nc2cc(N3CCN(C)CC3)nc(Sc3ccc(NC(=O)C4CC4)cc3)n2)n[nH]1 [Tozasertib] (partner 0.1 µM)
# Procedure, shortened: (§1)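 Relative viability was taken as the ratio of nuclei in treated wells to nuclei in vehicle wells. Lung cancer cell lines in 1536-well plates received compounds by pin tool one day after seeding, either one drug alone or a fixed anchor-drug dose plus five library-drug doses (not always all listed) in √10 steps. Nuclei were counted on 4× images after 5 days of treatment, and values are medians of duplicate plates.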
# Decitabine + Trametinib = compound: Nc1ncn([C@H]2C[C@H](O)[C@@H](CO)O2)c(=O)n1 [Decitabine] + CC(=O)Nc1cccc(-n2c(=O)n(C3CC3)c(=O)c3c(Nc4ccc(I)cc4F)n(C)c(=O)c(C)c32)c1 [Trametinib] (partner 0.02 µM)
# Procedure, shortened: as §1
# Cediranib + Dasatinib = compound: COc1cc2c(Oc3ccc4[nH]c(C)cc4c3F)ncnc2cc1OCCCN1CCCC1 [Cediranib] + Cc1nc(Nc2ncc(C(=O)Nc3c(C)cccc3Cl)s2)cc(N2CCN(CCO)CC2)n1 [Dasatinib] (partner 0.075 µM)
# Procedure, shortened: as §1
# Cediranib + Trametinib = compound: COc1cc2c(Oc3ccc4[nH]c(C)cc4c3F)ncnc2cc1OCCCN1CCCC1 [Cediranib] + CC(=O)Nc1cccc(-n2c(=O)n(C3CC3)c(=O)c3c(Nc4ccc(I)cc4F)n(C)c(=O)c(C)c32)c1 [Trametinib] (partner 0.02 µM)
# Procedure, shortened: as §1
Cell Line,relative viability (Cediranib + Tozasertib; first compound 0.04 µM),relative viability (Cediranib + Tozasertib; first compound 0.1265 µM),relative viability (Cediranib + Tozasertib; first compound 0.4 µM),relative viability (Cediranib + Tozasertib; first compound 1.265 µM),relative viability (Cediranib + Tozasertib; first compound 4 µM),relative viability (Decitabine + Trametinib; first compound 0.04 µM),relative viability (Decitabine + Trametinib; first compound 0.1265 µM),relative viability (Decitabine + Trametinib; first compound 0.4 µM),relative viability (Decitabine + Trametinib; first compound 1.265 µM),relative viability (Decitabine + Trametinib; first compound 4 µM),relative viability (Cediranib + Dasatinib; first compound 0.04 µM),relative viability (Cediranib + Dasatinib; first compound 0.1265 µM),relative viability (Cediranib + Dasatinib; first compound 0.4 µM),relative viability (Cediranib + Dasatinib; first compound 1.265 µM),relative viability (Cediranib + Dasatinib; first compound 4 µM),relative viability (Cediranib + Trametinib; first compound 0.04 µM),relative viability (Cediranib + Trametinib; first compound 0.1265 µM),relative viability (Cediranib + Trametinib; first compound 0.4 µM),relative viability (Cediranib + Trametinib; first compound 1.265 µM),relative viability (Cediranib + Trametinib; first compound 4 µM)
NCI-H2347,0.532,0.385,0.596,0.539,0.485,0.295,0.334,0.267,0.257,0.287,0.262,0.288,0.268,0.277,0.381,0.316,0.282,0.233,0.286,0.318
NCI-H2405,0.75,0.88,0.717,0.778,0.757,0.575,0.732,0.645,0.493,0.407,0.2,0.583,0.227,0.196,0.218,0.647,0.941,0.562,0.636,0.614
NCI-H3122,0.393,,0.364,0.53,0.468,0.213,0.208,0.243,0.167,0.218,0.901,0.694,0.731,0.542,0.897,0.226,,0.218,0.242,0.282
PC-3 [JPC-3],0.886,0.906,0.947,0.891,0.876,,0.7,0.498,0.485,0.657,1.09,1.1,0.966,1.04,0.909,0.69,,0.681,0.708,0.662
PC-14,0.711,0.651,0.585,0.61,0.483,0.51,0.343,0.0811,0.146,0.128,0.235,0.27,0.243,0.224,0.0965,0.862,0.664,0.66,0.582,0.519
RERF-LC-KJ,0.598,0.535,0.469,0.544,0.464,0.808,0.885,0.558,0.594,0.636,0.823,0.695,0.842,0.834,0.838,0.875,0.902,0.839,0.762,0.985
SK-LU-1,0.316,0.412,0.305,0.365,0.335,0.443,0.528,0.386,0.45,0.365,0.184,0.244,0.175,0.175,0.202,0.547,0.377,0.445,0.381,0.481
SK-MES-1,0.903,0.917,0.908,0.924,0.898,0.485,0.595,0.453,0.345,0.382,0.37,0.47,0.413,0.427,0.252,0.606,0.553,0.52,0.527,0.562
SW 900,0.605,0.507,0.584,0.48,0.571,0.389,0.435,0.288,0.262,0.288,0.629,0.669,0.594,0.654,0.524,0.76,1.08,0.636,0.83,0.885
SW 1573,0.193,0.179,0.136,0.153,0.18,0.44,0.638,0.368,0.27,0.301,0.646,0.661,0.43,0.389,0.524,0.667,0.624,0.57,0.55,0.496
